Our source for the IC50 values is patent publication US10934285B2, “Compounds and compositions for inhibiting the activity of SHP2” (Novartis AG, priority 2016, dated 2021).

For orientation: pIC50 means the negative decadic logarithm of the IC50, by convention in mol/L. Low readings indicate a high IC50, high ones a low IC50.

pIC50: −log10 of the molar value.

SHP2, sequence (Q06124 whole entry): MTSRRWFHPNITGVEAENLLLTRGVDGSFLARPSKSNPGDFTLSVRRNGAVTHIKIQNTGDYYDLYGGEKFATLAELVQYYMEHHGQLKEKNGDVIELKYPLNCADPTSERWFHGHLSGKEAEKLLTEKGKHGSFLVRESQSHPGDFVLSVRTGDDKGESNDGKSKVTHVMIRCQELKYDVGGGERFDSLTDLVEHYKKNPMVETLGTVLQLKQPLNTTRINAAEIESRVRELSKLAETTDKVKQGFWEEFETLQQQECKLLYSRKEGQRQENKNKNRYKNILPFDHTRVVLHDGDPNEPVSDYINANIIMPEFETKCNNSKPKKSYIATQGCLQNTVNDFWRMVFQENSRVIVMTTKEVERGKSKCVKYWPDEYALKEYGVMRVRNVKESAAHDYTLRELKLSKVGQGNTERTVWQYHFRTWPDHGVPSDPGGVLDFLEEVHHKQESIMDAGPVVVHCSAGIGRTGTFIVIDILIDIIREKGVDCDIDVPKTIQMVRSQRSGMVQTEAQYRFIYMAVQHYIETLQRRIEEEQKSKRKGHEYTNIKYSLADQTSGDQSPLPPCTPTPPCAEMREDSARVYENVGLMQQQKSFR

The experiment deals with SHP2 (Homo sapiens (Human), UniProt Q06124). The experiment can be described thus: SHP2 Allosteric Inhibition Assay. The class given is biochemical. As to conditions: 0.5 nM SHP2 activated with 0.5 μM peptide IRS1_pY1172(dPEG8)pY1222; surrogate substrate DiFMUP; prompt fluorescence. An excerpt:
SHP2 Allosteric Inhibition Assay
SHP2 is allosterically activated through binding of bis-tyrosyl-phorphorylated peptides to its Src Homology 2 (SH2) domains. The latter activation step leads to the release of the auto-inhibitory interface of SHP2, which in turn renders the SHP2 protein tyrosine phosphatase (PTP) active and available for substrate recognition and reaction catalysis. The catalytic activity of SHP2 was monitored using the surrogate substrate DiFMUP in a prompt fluorescence assay format.
After 30-60 minutes incubation at 25° C., the surrogate substrate DiFMUP (Invitrogen, cat #D6567) was added to the reaction and incubated at 25° C. for 30 minutes. […] The inhibitor dose response curves were analyzed using normalized IC50 regression curve fitting with control based normalization.
In the case of `CC1(N)CCN(c2cnc(Sc3cccc(NC(=O)c4c(O)nc5ccccn5c4=O)c3Cl)c(N)n2)CC1` [Example 1, N-(3-((3-Amino-5-(4-amino-4-methylpiperidin-1-yl)pyrazin-2-yl)thio)-2-chlorophenyl)-2-hydroxy-4-oxo-4H-pyrido[1,2-a]pyrimidine-3-carboxamide], the pIC50 was 8.22.

Compound `CC1(CN)CCN(c2cnc(Sc3cccc(NC(=O)c4c(O)nc5ccccn5c4=O)c3Cl)c(N)n2)CC1` [Example 2, N-(3-((3-amino-5-(4-(aminomethyl)-4-methylpiperidin-1-yl)pyrazin-2-yl)thio)-2-chlorophenyl)-2-hydroxy-4-oxo-4H-pyrido[1,2-a]pyrimidine-3-carboxamide] showed a pIC50 of 8.15.

Consider `CC1(CN)CCN(c2cnc(Sc3cccc(NC(=O)c4c(O)nc5sccn5c4=O)c3Cl)c(N)n2)CC1` [Example 3, N-(3-((3-amino-5-(4-(aminomethyl)-4-methylpiperidin-1-yl)pyrazin-2-yl)thio)-2-chlorophenyl)-7-hydroxy-5-oxo-5H-thiazolo[3,2-a]pyrimidine-6-carboxamide], for which the pIC50 is 8.22.

`Cn1c(=O)c(C(=O)Nc2cccc(Sc3ncc(N4CCC(C)(CN)CC4)nc3N)c2Cl)c(O)c2c(C3CC3)csc21` [Example 4, N-(3-((3-amino-5-(4-(aminomethyl)-4-methylpiperidin-1-yl)pyrazin-2-yl)thio)-2-chlorophenyl)-3-cyclopropyl-4-hydroxy-7-methyl-6-oxo-6,7-dihydrothieno[2,3-b]pyridine-5-carboxamide] showed a pIC50 of 5.99.

`CC1(CN)CCN(c2cnc(Sc3cccc(NC(=O)c4c(O)nc5cnccn5c4=O)c3Cl)c(N)n2)CC1` [Example 5, N-(3-((3-amino-5-(4-(aminomethyl)-4-methylpiperidin-1-yl)pyrazin-2-yl)thio)-2-chlorophenyl)-2-hydroxy-4-oxo-4H-pyrazino[1,2-a]pyrimidine-3-carboxamide] showed a negative logarithm of the IC50 (pIC50) of 8.52.

`CC1(CN)CCN(c2cnc(Sc3cccc(NC(=O)c4c(O)nc5[nH]ccn5c4=O)c3Cl)c(N)n2)CC1` [Example 6, N-(3-((3-amino-5-(4-(aminomethyl)-4-methylpiperidin-1-yl)pyrazin-2-yl)thio)-2-chloropheny1)-7-hydroxy-5-oxo-1,5-dihydroimidazo[1,2-a]pyrimidine-6-carboxamide] gave a pIC50 of 8.30.

`CC1(CN)CCN(c2cnc(Sc3cccc(NC(=O)c4c(O)nc5n(c4=O)CCCC5)c3Cl)c(N)n2)CC1` [Example 7, N-(3-((3-amino-5-(4-(aminomethyl)-4-methylpiperidin-1-yl)pyrazin-2-yl)thio)-2-chlorophenyl)-2-hydroxy-4-oxo-6,7,8,9-tetrahydro-4H-pyrido[1,2-a]pyrimidine-3-carboxamide] had a pIC50 of 8.22.

`Cn1c(=O)c(C(=O)Nc2cccc(Sc3ncc(N4CCC(C)(CN)CC4)nc3N)c2Cl)c(O)c2ccccc21` [Example 8, N-(3-((3-amino-5-(4-(aminomethyl)-4-methylpiperidin-1-yl)pyrazin-2-yl)thio)-2-chlorophenyl)-4-hydroxy-1-methyl-2-oxo-1,2-dihydroquinoline-3-carboxamide]: the pIC50 is 7.36.

Regarding `CC1(CN)CCN(c2cnc(Sc3cccc(NC(=O)c4c(O)nc5n(c4=O)CCNC5)c3Cl)c(N)n2)CC1` [Example 9, N-(3-((3-amino-5-(4-(aminomethyl)-4-methylpiperidin-1-yl)pyrazin-2-yl)thio)-2-chlorophenyl)-2-hydroxy-4-oxo-6,7,8,9-tetrahydro-4H-pyrazino[1,2-a]pyrimidine-3-carboxamide], the pIC50 is 8.15.

Turning to `NCC1(O)CCN(c2cnc(Sc3cccc(NC(=O)c4c(O)nc5ccccn5c4=O)c3Cl)c(N)n2)CC1` [Example 10, N-(3-((3-amino-5-(4-(aminomethyl)-4-hydroxypiperidin-1-yl)pyrazin-2-yl)thio)-2-chlorophenyl)-2-hydroxy-4-oxo-4H-pyrido[1,2-a]pyrimidine-3-carboxamide], the pIC50 is 8.22.

With `NCC1(O)CCN(c2cnc(Sc3cccc(NC(=O)c4c(O)nc5n(c4=O)CCCC5)c3Cl)c(N)n2)CC1` [Example 11, N-(3-((3-amino-5-(4-(aminomethyl)-4-hydroxypiperidin-1-yl)pyrazin-2-yl)thio)-2-chlorophenyl)-2-hydroxy-4-oxo-6,7,8,9-tetrahydro-4H-pyrido[1,2-a]pyrimidine-3-carboxamide], the pIC50 is 7.92.

On to `N#CC1(CN)CCN(c2cnc(Sc3cccc(NC(=O)c4c(O)nc5n(c4=O)CCCC5)c3Cl)c(N)n2)CC1` [Example 12, N-(3-((3-amino-5-(4-(aminomethyl)-4-cyanopiperidin-1-yl)pyrazin-2-yl)thio)-2-chlorophenyl)-2-hydroxy-4-oxo-6,7,8,9-tetrahydro-4H-pyrido[1,2-a]pyrimidine-3-carboxamide], for which the pIC50 is 6.59.

On to `Nc1nc(N2CCC(N)(CF)CC2)cnc1Sc1cccc(NC(=O)c2c(O)nc3ccccn3c2=O)c1Cl` [Example 13, N-(3-((3-amino-5-(4-amino-4-(fluoromethyl)piperidin-1-yl)pyrazin-2-yl)thio)-2-chlorophenyl)-2-hydroxy-4-oxo-4H-pyrido[1,2-a]pyrimidine-3-carboxamide], for which the pIC50 is 8.34.

For `Nc1nc(N2CCC(N)(CF)CC2)cnc1Sc1cccc(NC(=O)c2c(O)nc3n(c2=O)CCCC3)c1Cl` [Example 14, N-(3-((3-amino-5-(4-amino-4-(fluoromethyl)piperidin-1-yl)pyrazin-2-yl)thio)-2-chlorophenyl)-2-hydroxy-4-oxo-6,7,8,9-tetrahydro-4H-pyrido[1,2-a]pyrimidine-3-carboxamide], the pIC50 is 8.23.

`NCC1(F)CCN(c2cnc(Sc3cccc(NC(=O)c4c(O)nc5ccccn5c4=O)c3Cl)c(N)n2)CC1` [Example 15, N-(3-((3-amino-5-(4-(aminomethyl)-4-fluoropiperidin-1-yl)pyrazin-2-yl)thio)-2-chlorophenyl)-2-hydroxy-4-oxo-4H-pyrido[1,2-a]pyrimidine-3-carboxamide] had a pIC50 of 8.00.

The compound `NCC1(F)CCN(c2cnc(Sc3cccc(NC(=O)c4c(O)nc5n(c4=O)CCCC5)c3Cl)c(N)n2)CC1` [Example 16, N-(3-((3-amino-5-(4-(aminomethyl)-4-fluoropiperidin-1-yl)pyrazin-2-yl)thio)-2-chlorophenyl)-2-hydroxy-4-oxo-6,7,8,9-tetrahydro-4H-pyrido[1,2-a]pyrimidine-3-carboxamide] gave a pIC50 of 8.10.

As for `NCC1CCN(c2cnc(Sc3cccc(NC(=O)c4c(O)nc5ccccn5c4=O)c3Cl)c(N)n2)C1` (stereo not drawn) [Example 17], the pIC50 was 7.89.

`Nc1nc(N2CCC(C(N)C(F)(F)F)C2)cnc1Sc1cccc(NC(=O)c2c(O)nc3ccccn3c2=O)c1Cl` (stereo not drawn) [Example 18, N-(3-((3-amino-5-(3-(1-amino-2,2,2-trifluoroethyl)pyrrolidin-1-yl)pyrazin-2-yl)thio)-2-chlorophenyl)-2-hydroxy-4-oxo-4H-pyrido[1,2-a]pyrimidine-3-carboxamide] gave a pIC50 of 6.10.

In turn, `Nc1nc(N2CCC(N)(C(F)(F)F)CC2)cnc1Sc1cccc(NC(=O)c2c(O)nc3ccccn3c2=O)c1Cl` [Example 19, N-(3-((3-amino-5-(4-amino-4-(trifluoromethyl)piperidin-1-yl)pyrazin-2-yl)thio)-2-chlorophenyl)-2-hydroxy-4-oxo-4H-pyrido[1,2-a]pyrimidine-3-carboxamide] gave a pIC50 of 5.66.

In the case of `Nc1nc(N2CCC(N)(C(F)(F)F)CC2)cnc1Sc1cccc(NC(=O)c2c(O)nc3n(c2=O)CCCC3)c1Cl` [Example 20, N-(3-((3-amino-5-(4-amino-4-(trifluoromethyl)piperidin-1-yl)pyrazin-2-yl)thio)-2-chlorophenyl)-2-hydroxy-4-oxo-6,7,8,9-tetrahydro-4H-pyrido[1,2-a]pyrimidine-3-carboxamide], the pIC50 was 5.30.

Regarding `Nc1nc(N2CCC3(CC2)CCC(F)(F)[C@H]3N)cnc1Sc1cccc(NC(=O)c2c(O)nc3ccccn3c2=O)c1Cl` [Example 22, (S)-N-(3-((3-amino-5-(1-amino-2,2-difluoro-8-azaspiro[4.5]decan-8-yl)pyrazin-2-yl)thio)-2-chlorophenyl)-2-hydroxy-4-oxo-4H-pyrido[1,2-a]pyrimidine-3-carboxamide], the pIC50 is 8.00.

In turn, `Nc1nc(N2CCC3(CCC[C@H]3N)CC2)cnc1Sc1cccc(NC(=O)c2c(O)nc3ccccn3c2=O)c1Cl` [Example 23, (R)-N-(3-((3-amino-5-(1-amino-8-azaspiro[4.5]decan-8-yl)pyrazin-2-yl)thio)-2-chlorophenyl)-2-hydroxy-4-oxo-4H-pyrido[1,2-a]pyrimidine-3-carboxamide] had a pIC50 of 8.30.

In turn, `Nc1nc(N2CCC3(CCC[C@H]3N)CC2)cnc1Sc1cccc(NC(=O)c2c(O)nc3n(c2=O)CCCC3)c1Cl` [Example 24, (R)-N-(3-((3-amino-5-(1-amino-8-azaspiro[4.5]decan-8-yl)pyrazin-2-yl)thio)-2-chlorophenyl)-2-hydroxy-4-oxo-6,7,8,9-tetrahydro-4H-pyrido[1,2-a]pyrimidine-3-carboxamide] gave a pIC50 of 9.00.

`Cc1oc(=O)oc1COC(=O)NCC1(C)CCN(c2cnc(Sc3cccc(NC(=O)c4c(O)nc5ccccn5c4=O)c3Cl)c(N)n2)CC1` [Example 25, (5-Methyl-2-oxo-1,3-dioxol-4-yl)methyl ((1-(6-amino-5-((2-chloro-3-(2-hydroxy-4-oxo-4H-pyrido[1,2-a]pyrimidine-3-carboxamido)phenyl)thio)pyrazin-2-yl)-4-methylpiperidin-4-yl)methyl)carbamate] had a pIC50 of 7.10.
